According to patent US12103924B2, “Mitogen-activated protein kinase kinase (MEK) degradation compounds and methods of use” (Icahn School of Medicine at Mount Sinai, priority 2020, dated 2024):

Legend:
pMEK and pERK [1] = assay: Western blot of MEK and ERK phosphorylation in HT-29 cells; type: cell-based
MEK1/2 [2] = assay: Rescue experiments (pretreatment) in HT-29 cells, western blot; type: cell-based; details: 2 h pretreatment with PD0325901 (1 μM), MG-132 (3 μM), MLN4924 (1 μM) or VH 032 (10 μM), then 10 h with 0.3 μM CPD-031
Method: The cells were incubated for another 8 h.
(§1) The sample was centrifuged at 12,000 g for 10 min at 4° C. to get supernatant as cell lysate. Protein concentrations were quantified using Pierce rapid gold BCA protein assay kit.

MEK1/2 [3] = assay: Western blot of MEK1/2 protein levels in HT-29 cells; type: cell-based
Method: Compound concentrations are 0.3 μM, 1 μM and 3 μM.
(§2) The indicated protein levels were determined by Western blots.
as §1

MEK1 and MEK2 proteins = assay: Global proteome analysis of HT-29 cells; type: cell-based, human; details: 10 h, 0.1 μM, versus 0.1% DMSO
Method: […] […] P values were calculated from the data of two technical replicates. (A) DMSO compared to CPD-031 treated samples; (B) CPD-034 compared to CPD-031 treated samples; (C) DMSO compared to CPD-034 treated samples.
Proteins outside the significance lines were labeled with pink or purple color (FDR=0.05, S0=1). P values were calculated from the data of two technical replicates.
Protein Extraction and Digestion. Cells with indicated treatments were harvested and lysed in lysis buffer (6 M guanidine hydrochloride, 100 mM Tris-HCl pH 8.0). Sonication (5 s on, 5 s off, 2×30 s) was performed to shear genome DNA. Lysate were centrifugated for 30 min at 3,500 g at 4° C. and the supernatant were transferred to a clean tube, diluted 50% with Milli-Q H2O, then precipitated by addition of cold acetone (four times the original volume), and placed at −20° C. overnight. Precipitated proteins were brought down at 20,000 g at 4° C. for 10 min, and washed with cold acetone after discarding the supernatant. The pellet was air-dried at RT for 5 min and solubilized with 50 mM Tris-HCl (PH 8.0), 8 M urea. Protein concentration was determined (BCA assay) and protein was reduced with 5 mM DTT (dithiothreitol), alkylated with 15 mM IAA (iodoacetamide) in the dark, then diluted with buffer 25 mM Tris (pH 8.0) and 1 mM CaCl2 (three times the original volume). The final urea concentration is 2 M. Trypsin was added into protein solution with 1:100 ratio (trypsin:protein), and digested 12-16 h or overnight at RT.
Mass Spectrometry Analysis. Peptides were cleaned up by C18 stage tips and the concentration was determined (Peptide assay, 23275, Thermo Fisher Scientific). The clean peptides were dissolved in 0.1% formic acid and analyzed on a Q-Exactive HF-X coupled with an Easy nanoLC 1200 (Thermo Fisher Scientific, San Jose, CA). 0.5 μg of peptides were loaded onto an Acclain PepMap RSLC C18 Column (250 mm×75 μm ID, C18, 2 μm, Thermo Fisher Scientific). […] A linear gradient of 5 to 30% buffer B over 110 min was executed at a 300 nl/min flow rate followed a ramp to 100% B in 5 min, and 15-min wash with 100% B, where buffer A was aqueous 0.1% formic acid, and buffer B was 80% acetonitrile and 0.1% formic acid.
LC-MS experiments were performed in a data-dependent mode with full MS (externally calibrated to a mass accuracy of <5 ppm and a resolution of 60,000 at m/z 200) followed by high energy collision-activated dissociation-MS/MS of the top 20 most intense ions with a resolution of 15,000 at m/z 200. High energy collision-activated dissociation-MS/MS was used to dissociate peptides at a normalized collision energy of 27 eV in the presence of nitrogen bath gas atoms. Dynamic exclusion was 30.0 seconds. Each sample was subjected to two technical LC-MS replicates.
MS Data Analysis. Mass spectra processing and peptide identification were performed on the Andromeda search engine in MaxQuant software (Version 1.6.0.16) against the human UniProt database (UP000005640). All searches were conducted with a defined modification of cysteine carbamidomethylation, with methionine oxidation and protein amino-terminal acetylation as dynamic modifications. Peptides were confidently identified using a target-decoy approach with a peptide false discovery rate (FDR) of 1% and a protein FDR of 1%. A minimum peptide length of 7 amino acids was required, maximally two missed cleavages were allowed, initial mass deviation for precursor ion was up to 7 ppm, and the maximum allowed mass deviation for fragment ions was 0.5 Da. Data processing and statistical analysis were performed on Perseus (Version 1.6.0.7). Protein quantitation was performed on duplicate runs, and a two-sample t-test statistics was used to report statistically significant expression fold-changes.

MEK1 = target: T1, MEK1 (Homo sapiens, UniProt Q02750); assay: HotSpot kinase inhibition assay, MEK1; type: biochemical; details: MEK1 100 nM, ERK K52R substrate, 33P-ATP, normalized with DMSO
T1 construct: purchased Thermo Fisher Scientific PV3303

pMEK and pERK [4] = assay: Western blot of MEK and ERK phosphorylation in SK-MEL-28 cells
HT-29 cells = assay: MTT cell viability assay, HT-29; type: cell-based
Method: MTT assay was conducted for HT-29 cells after 3 d treatment with indicated compounds with serial dilutions.
MTT assay was conducted for HT-29 (A) and SK-MEL-28 (B) cells after 3 d treatment with DMSO or indicated compounds with serial dilutions. Clonogenic assay was performed in HT-29 (C) and SK-MEL-28 (D) cells for 14 d treatment with DMSO or indicated compounds with 10, 30 and 100 nM, in duplicate, respectively. Cells were then stained by crystal violet.
HT-29 or SK-MEL-28 cells (300 cells per well) were seeded in 12-well plates. After 20 h, cells were treated with DMSO or indicated concentrations of compounds in duplicate for two weeks. Medium containing indicated compounds was changed every 3 days. Cells were then fixed and stained with the solution containing 6% (v/v) glutaraldehyde (G5882, Sigma-Aldrich) and 0.5% (w/v) crystal violet for 1 h. To remove the background color, the plates with stained cells were immersed in running water until clear colonies were observed. The plates were dried at RT. The staining images were obtained with Epson Perfection V600 Photo.

MEK2 = target: T2, MEK2 (Homo sapiens, UniProt P36507); assay: HotSpot kinase inhibition assay, MEK2; type: biochemical; details: MEK2 150 nM, ERK K52R substrate, 33P-ATP, normalized with DMSO
T2 construct: purchased Thermo Fisher Scientific PV3615

MEK1/2 [5] = assay: Western blot of MEK1/2 protein levels in SK-MEL-28 cells
Method: as §2, §1

SK-MEL-28 cells = assay: MTT cell viability assay, SK-MEL-28; type: cell-based; details: MTT 3 d, clonogenic assay 14 d at 10, 30 and 100 nM
Method: Clonogenic assay was performed in HT-29 (C) and SK-MEL-28 (D) cells for 14 d treatment with DMSO or indicated compounds with 10, 30 and 100 nM, in duplicate, respectively. Cells were then stained by crystal violet.
Cells (2000 cells per well) were seeded into 96-well microplates. After 20 h, cells were treated with 0.1% DMSO or indicated serial dilutions of compounds in duplicate or triplicate for 3 days. Cell viability was tested using MTT (M6494, Thermo Fisher Scientific) or WST-8 reagent (CK04, Dojindo). Briefly, 12 mM MTT was prepared in PBS or WST-8 reagent was warmed up to room temperature. 20 μL MTT or CCK-8 was then added to each well and the plates were kept in incubator at 37° C. for 3 h in the dark. For the WST-8 assay, signal was obtained after the incubation. For the MTT assay, cell medium was replaced with 200 μL of DMSO after the incubation, and then cell plates were kept at 37° C. for another 30 min. Absorbance signals for MTT and WST-8 were read at 540 nm and 450 nm respectively, with 690 nm as reference performed with Infinite F PLEX plate reader (TECAN, Morrisville, NC, USA). GI50 values were analyzed using GraphPad Prism 8 from the data of at least three independent experiments.
HT-29 or SK-MEL-28 cells (300 cells per well) were seeded in 12-well plates. After 20 h, cells were treated with DMSO or indicated concentrations of compounds in duplicate for two weeks. […]

MEK1/2 [6] = assay: Rescue experiments (pretreatment) in SK-MEL-28 cells, western blot; type: cell-based; details: 2 h pretreatment with PD0325901 (1 μM), MG-132 (3 μM), MLN4924 (1 μM) or VH 032 (10 μM), then 10 h with 0.3 μM CPD-031
[7] = HT-29 cells, 0.1 μM or 0.3 μM, harvested at indicated time points
[8] = HT-29 cells, 0.1, 0.3, or 1 μM, 24 h
[9] = HT-29 cells, serial dilution, 24 h, western blot
[10] = SK-MEL-28 cells, 0.1 μM or 0.3 μM, harvested at indicated time points
[11] = SK-MEL-28 cells, 0.1, 0.3, or 1 μM, 24 h
[12] = SK-MEL-28 cells, serial dilution, 24 h, western blot

T2 sequence (P36507 whole entry): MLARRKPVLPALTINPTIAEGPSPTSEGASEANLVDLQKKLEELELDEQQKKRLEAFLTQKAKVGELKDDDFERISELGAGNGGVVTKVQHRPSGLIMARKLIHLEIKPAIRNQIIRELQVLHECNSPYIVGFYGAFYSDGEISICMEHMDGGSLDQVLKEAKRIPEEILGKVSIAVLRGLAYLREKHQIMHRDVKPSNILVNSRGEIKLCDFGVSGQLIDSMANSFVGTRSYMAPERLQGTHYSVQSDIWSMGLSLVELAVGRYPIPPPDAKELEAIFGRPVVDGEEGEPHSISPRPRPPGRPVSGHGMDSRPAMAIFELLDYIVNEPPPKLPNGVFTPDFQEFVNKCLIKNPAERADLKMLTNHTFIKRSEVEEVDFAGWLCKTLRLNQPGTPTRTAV
T1 sequence (Q02750 whole entry): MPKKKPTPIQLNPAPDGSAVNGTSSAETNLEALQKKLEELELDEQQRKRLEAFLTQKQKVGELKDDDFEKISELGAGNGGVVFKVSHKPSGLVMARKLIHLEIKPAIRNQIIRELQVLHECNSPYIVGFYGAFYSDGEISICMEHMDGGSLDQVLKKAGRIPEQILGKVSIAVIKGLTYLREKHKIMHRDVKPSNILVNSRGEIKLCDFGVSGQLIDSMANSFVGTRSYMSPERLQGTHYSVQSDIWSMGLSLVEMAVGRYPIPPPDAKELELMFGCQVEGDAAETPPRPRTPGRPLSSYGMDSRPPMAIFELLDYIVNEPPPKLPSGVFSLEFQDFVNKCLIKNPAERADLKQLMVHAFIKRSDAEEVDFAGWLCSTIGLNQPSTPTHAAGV

Cc1ncsc1-c1ccc([C@H](C)NC(=O)[C@@H]2C[C@@H](O)CN2C(=O)[C@@H](NC(=O)CCCCCCCCCCNCCCONC(=O)c2ccc(F)c(F)c2Nc2ccc(I)cc2F)C(C)(C)C)cc1 [CPD-031, (2S,4R)-1-((S)-20-(tert-butyl)-1-(3,4-difluoro-2-((2-fluoro-4-iodophenyl)amino)phenyl)-1,18-dioxo-3-oxa-2,7,19-triazahenicosan-21-oyl)-4-hydroxy-N—((S)-1-(4-(4-methylthiazol-5-yl)phenyl)ethyl)pyrrolidine-2-carboxamide]
phosphorylation of MEK and ERK / pERK signaling, time-dependent (pMEK and pERK [1]; [7]): inhibited
inhibition of MEK and ERK phosphorylation compared with CPD-034 (pMEK and pERK [1]; [8]): more potent
phosphorylation of MEK and ERK proteins, concentration-dependent (pMEK and pERK [1]; [9]): inhibited
potency at degradation of MEK1 and MEK2 and inhibition of MEK phosphorylation after pretreatment (MEK1/2 [2]): significantly impaired
MEK1 and MEK2 protein levels, time-dependent (MEK1/2 [3]; [7]): reduced
MEK1 and MEK2 protein levels (MEK1/2 [3]; [8]): reduced
MEK1 and MEK2 protein levels, concentration-dependent (MEK1/2 [3]; [9]): reduced
protein levels in the global proteomic study (MEK1 and MEK2 proteins): selectively degraded
MEK1 kinase activity (MEK1): inhibited
phosphorylation of MEK and ERK / pERK signaling, time-dependent (pMEK and pERK [4]; [10]): inhibited
inhibition of MEK and ERK phosphorylation compared with CPD-034 (pMEK and pERK [4]; [11]): more potent
phosphorylation of MEK and ERK proteins, concentration-dependent (pMEK and pERK [4]; [12]): inhibited
GI50 (HT-29 cells; Homo sapiens, 72 h, MTT assay, 3 d treatment, serial dilutions): 0.13 ± 0.04 µM
inhibition of the growth of cells compared with CPD-034 (HT-29 cells; MTT 3 d, clonogenic assay 14 d at 10, 30 and 100 nM): more potent
MEK2 kinase activity (MEK2): inhibited
MEK1 and MEK2 protein levels, time-dependent (MEK1/2 [5]; [10]): reduced
MEK1 and MEK2 protein levels (MEK1/2 [5]; [11]): reduced
MEK1 and MEK2 protein levels, concentration-dependent (MEK1/2 [5]; [12]): reduced
inhibition of the growth of cells compared with CPD-034 (SK-MEL-28 cells): more potent
potency at degradation of MEK1 and MEK2 and inhibition of MEK phosphorylation after pretreatment (MEK1/2 [6]): significantly impaired
